Reference: ChEMBL document CHEMBL1201862, “PubChem BioAssay data set” (2004)
The source made the active and inactive calls.

Columns and labels:
[1] = Luminescence Cell-Based Dose Confirmation HTS to Identify Activators of 5'UTR Stem-Loop Driven Alpha-Synuclein mRNA Translation in H4 Neuroglioblastoma Cells. [Related pubchem assays: 1829 (Project Summary), 1814 (Primary HTS)]; type: functional
[2] = Luminescence Cell-Based Dose Response HTS to Identify Activators of Luciferase Translation or Activity in H4 […] Cells. [Related pubchem assays: 1829 (Project Summary), 1814 (Primary HTS)]; type: functional
[3] = system: H4; assay: Luminescence Cell-Based Dose Response HTS to Identify Activators of 5'UTR Stem-Loop Driven Prion Protein mRNA Translation in H4 Neuroglioblastoma Cells. [Related pubchem assays: 1829 (Project Summary), 1814 (Primary HTS)]; type: functional; conditions: Homo sapiens
[4] = inhibitors of intracellular T. cruzi replication, confirmation, NIH3T3 host cells, beta-gal luminescence (AID 2044); type: functional, cell-based;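 further: intracellular parasites grown in NIH/3T3 mouse fibroblasts as host cells; luminescent beta-galactosidase reporter signal from transgenic T. cruzi replicating inside host cells; inhibitors lower the luminescence signal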
[5] = cytotoxicity toward NIH3T3 fibroblasts, dose response, counter-screen, cell-based, ATP luminescence, mouse fibroblasts (AID 2010); type: functional;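 further: cells exposed to compound for about 90 hours before reading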
[6] = target: CAAX prenyl protease 2 (Saccharomyces cerevisiae S288c, UniProt Q03530); type: biochemical
[7] = Luminescent dose response cell-based high throughput screening assay for inhibitors of the Janus kinase 2 mutant JAK2V617F. [Related pubchem assays: 1446 (Primary screen.), 1521 (Confirmation assay.), 1486 (Counter screen.)]; type: functional
[8] = cytotoxicity in HPDE-C7 cells, cell-based, fluorescence, HTS (AID 430); type: functional; conditions: Homo sapiens
[9] = cytotoxicity in KRAS-transformed pancreatic duct cells, primary screen, cell-based, fluorescence, HTS (AID 431); type: functional; conditions: Homo sapiens;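 further: cell line used: HPDE-C7K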
[10] = target: DNA damage-inducible transcript 3 protein (Mus musculus, UniProt P35639); type: functional, Cricetulus griseus
[11] = target: T1, Replicative DNA helicase DnaB (Mycobacterium tuberculosis, UniProt P9WMR3); assay: DnaB intein splicing inhibitors, dose response, biochemical, cell-free fluorescence (AID 449749); type: functional
T1 sequence (P9WMR3 whole entry): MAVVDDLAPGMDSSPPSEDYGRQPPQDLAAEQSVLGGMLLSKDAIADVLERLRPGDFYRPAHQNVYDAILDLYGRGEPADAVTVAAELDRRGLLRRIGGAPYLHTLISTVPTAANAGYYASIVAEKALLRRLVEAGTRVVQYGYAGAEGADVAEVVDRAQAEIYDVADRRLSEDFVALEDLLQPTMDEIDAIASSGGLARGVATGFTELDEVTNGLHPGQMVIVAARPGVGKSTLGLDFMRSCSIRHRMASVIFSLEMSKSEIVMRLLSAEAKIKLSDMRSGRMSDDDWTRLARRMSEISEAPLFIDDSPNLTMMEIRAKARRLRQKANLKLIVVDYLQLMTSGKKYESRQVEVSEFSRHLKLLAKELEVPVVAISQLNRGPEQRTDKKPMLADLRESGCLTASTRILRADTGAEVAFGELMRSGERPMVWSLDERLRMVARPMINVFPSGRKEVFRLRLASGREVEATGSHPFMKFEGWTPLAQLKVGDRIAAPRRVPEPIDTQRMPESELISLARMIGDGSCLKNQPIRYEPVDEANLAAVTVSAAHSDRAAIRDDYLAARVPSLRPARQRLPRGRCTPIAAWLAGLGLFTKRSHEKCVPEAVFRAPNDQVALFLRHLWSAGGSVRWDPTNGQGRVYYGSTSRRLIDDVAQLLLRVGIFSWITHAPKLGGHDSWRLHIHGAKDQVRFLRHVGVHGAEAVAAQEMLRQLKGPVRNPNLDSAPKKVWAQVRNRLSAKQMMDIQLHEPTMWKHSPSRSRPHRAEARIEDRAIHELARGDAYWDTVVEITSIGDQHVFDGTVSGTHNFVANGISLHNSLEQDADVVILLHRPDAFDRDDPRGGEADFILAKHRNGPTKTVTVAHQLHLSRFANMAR

[12] = target: T2, Protein RecA (Mycobacterium tuberculosis, UniProt P9WHJ3); assay: Fluorescence Cell-Free Homogeneous Dose Retest to Identify Inhibitors of RecA-Intein Splicing Activity. [Related pubchem assays (depositor defined):AID2097, AID2223, AID489010, AID492950]; type: functional
T2 sequence (P9WHJ3 whole entry): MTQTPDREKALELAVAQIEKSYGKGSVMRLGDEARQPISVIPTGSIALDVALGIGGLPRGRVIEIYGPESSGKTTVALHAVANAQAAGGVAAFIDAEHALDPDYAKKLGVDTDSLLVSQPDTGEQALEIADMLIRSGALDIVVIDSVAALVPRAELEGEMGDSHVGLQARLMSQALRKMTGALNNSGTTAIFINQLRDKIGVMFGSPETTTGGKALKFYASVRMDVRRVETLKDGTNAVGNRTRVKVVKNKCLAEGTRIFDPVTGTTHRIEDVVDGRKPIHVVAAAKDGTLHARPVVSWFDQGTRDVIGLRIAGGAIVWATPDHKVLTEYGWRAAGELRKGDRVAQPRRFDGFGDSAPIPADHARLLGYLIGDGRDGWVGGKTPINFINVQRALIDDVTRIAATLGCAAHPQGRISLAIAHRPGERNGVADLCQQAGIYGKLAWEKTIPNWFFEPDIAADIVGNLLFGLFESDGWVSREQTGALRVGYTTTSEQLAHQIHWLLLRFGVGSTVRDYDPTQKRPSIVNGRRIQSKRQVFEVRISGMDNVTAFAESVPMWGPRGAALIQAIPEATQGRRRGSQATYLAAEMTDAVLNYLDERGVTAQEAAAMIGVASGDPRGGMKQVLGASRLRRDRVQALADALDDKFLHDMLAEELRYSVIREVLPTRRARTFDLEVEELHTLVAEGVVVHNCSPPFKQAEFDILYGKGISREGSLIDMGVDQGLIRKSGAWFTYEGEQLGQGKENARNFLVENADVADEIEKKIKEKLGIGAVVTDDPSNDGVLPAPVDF

[13] = system: T-cell; assay: inhibitors of CD8+ T cell–vesicle binding, dose response, mouse 2C CD8+ T cells, flow cytometry (AID 485284); type: functional
[14] = target: T3, Coagulation factor XII (Homo sapiens, UniProt P00748); assay: Factor XIIa Dose Response Confirmation from Single Well HTS. [Related pubchem assays (depositor defined):AID701]; type: functional
T3 sequence (P00748 whole entry): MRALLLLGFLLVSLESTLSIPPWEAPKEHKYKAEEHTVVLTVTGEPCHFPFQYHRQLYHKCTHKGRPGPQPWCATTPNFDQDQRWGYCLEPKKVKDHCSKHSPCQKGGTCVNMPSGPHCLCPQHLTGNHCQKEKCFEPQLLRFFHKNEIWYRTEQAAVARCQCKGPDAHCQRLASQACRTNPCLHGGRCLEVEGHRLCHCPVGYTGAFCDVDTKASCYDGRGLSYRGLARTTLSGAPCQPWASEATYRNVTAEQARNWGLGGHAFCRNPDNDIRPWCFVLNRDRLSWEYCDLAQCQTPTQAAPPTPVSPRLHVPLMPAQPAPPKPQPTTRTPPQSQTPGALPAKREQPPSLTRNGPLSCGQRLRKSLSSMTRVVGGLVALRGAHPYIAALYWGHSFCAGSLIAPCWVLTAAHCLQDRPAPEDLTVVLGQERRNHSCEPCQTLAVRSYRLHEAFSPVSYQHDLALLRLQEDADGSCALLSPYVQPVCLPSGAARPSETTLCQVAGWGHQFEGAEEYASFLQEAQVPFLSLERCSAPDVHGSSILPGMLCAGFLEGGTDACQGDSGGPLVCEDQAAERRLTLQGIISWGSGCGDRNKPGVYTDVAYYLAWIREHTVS

[15] = target: Integrin alpha-4 (Homo sapiens, UniProt P13612); assay: VLA-4 integrin allosteric ligands, SAR follow-up, cell-based, LIBS antibody binding, flow cytometry (AID 488791); type: functional
[16] = target: Sphingosine 1-phosphate receptor 4 (Homo sapiens, UniProt O95977); assay: Late-stage fluorescence dose response cell-based assay to identify agonists of the Sphingosine 1-Phosphate Receptor 4 (S1P4): purchased compounds EC50. [Related pubchem assays (depositor defined):AID1509, AID1523, AID1563, AID1686, AID1701, AID1801]; type: functional
[17] = target: Dual specificity protein phosphatase 3 (Homo sapiens, UniProt P51452); assay: SAR VHR1 Fluorescent Assay for In Vitro dose response studies Set 2. [Related pubchem assays (depositor defined):AID1654, AID1661, AID1878]; type: functional
[18] = target: T4, Dual specificity protein phosphatase 6 (Rattus norvegicus, UniProt Q64346); type: functional;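 further: confirmatory in vitro dose-response testing of MKP-3 inhibition; recombinant His-tagged MKP-3 made in E. coli BL21 with OMFP substrate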
T4 sequence (Q64346 whole entry): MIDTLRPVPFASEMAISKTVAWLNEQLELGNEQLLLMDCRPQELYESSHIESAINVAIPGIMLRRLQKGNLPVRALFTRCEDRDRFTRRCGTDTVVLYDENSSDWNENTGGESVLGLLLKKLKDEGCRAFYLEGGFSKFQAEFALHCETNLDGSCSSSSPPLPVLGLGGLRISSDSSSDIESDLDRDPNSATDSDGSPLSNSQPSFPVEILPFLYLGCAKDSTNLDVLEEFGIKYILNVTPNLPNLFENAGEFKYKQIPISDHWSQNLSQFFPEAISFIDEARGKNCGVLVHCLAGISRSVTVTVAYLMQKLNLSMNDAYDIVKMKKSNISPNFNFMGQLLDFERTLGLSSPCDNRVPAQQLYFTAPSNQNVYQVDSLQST

[19] = target: Mu-type opioid receptor (Homo sapiens, UniProt P35372); assay: SAR Analysis of Antagonists of the MOR Receptor using an Image-Based Assay - Set 3. [Related pubchem assays (depositor defined):AID1777, AID1785, AID1786, AID1966, AID2133, AID2136, AID2284, AID2285, AID2420]; type: functional
[20] = target: Delta-type opioid receptor (Homo sapiens, UniProt P41143); assay: SAR Analysis of Antagonists of the DOR Receptor using an Image-Based Assay - Set 3. [Related pubchem assays (depositor defined):AID1777, AID1785]; type: functional;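 further: U2OS cells expressing DOR1 and beta-arrestin GFP stimulated with 100 nM SNC80; imaging of GFP-tagged beta-arrestin moving into spots after receptor activation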
[21] = target: T5, Kappa-type opioid receptor (Homo sapiens, UniProt P41145); assay: SAR analysis of small molecule antagonists of the kappa opioid receptor via a luminescent beta-arrestin assay - Set 3. [Related pubchem assays (depositor defined):AID1777, AID1778, AID1785, AID1786, AID1966, AID2133, AID2136, AID2285, AID2495]; type: functional
[22] = target: T5, Kappa-type opioid receptor; assay: SAR analysis of Antagonists of the Kappa Opioid Receptor (KOR) using an Image-Based Assay - Set 3. [Related pubchem assays (depositor defined):AID1777, AID1785]; type: functional
[23] = target: Hexokinase (Trypanosoma brucei, UniProt Q38C41); assay: Confirmation assay for inhibitors of Trypanosoma brucei hexokinase 1-Analogue-first series. [Related pubchem assays (depositor defined):AID1430, AID1632, AID2516, AID2560, AID2579, AID2600, AID449725, AID492951]; type: functional
Chain of Hexokinase (Q38C41 whole entry): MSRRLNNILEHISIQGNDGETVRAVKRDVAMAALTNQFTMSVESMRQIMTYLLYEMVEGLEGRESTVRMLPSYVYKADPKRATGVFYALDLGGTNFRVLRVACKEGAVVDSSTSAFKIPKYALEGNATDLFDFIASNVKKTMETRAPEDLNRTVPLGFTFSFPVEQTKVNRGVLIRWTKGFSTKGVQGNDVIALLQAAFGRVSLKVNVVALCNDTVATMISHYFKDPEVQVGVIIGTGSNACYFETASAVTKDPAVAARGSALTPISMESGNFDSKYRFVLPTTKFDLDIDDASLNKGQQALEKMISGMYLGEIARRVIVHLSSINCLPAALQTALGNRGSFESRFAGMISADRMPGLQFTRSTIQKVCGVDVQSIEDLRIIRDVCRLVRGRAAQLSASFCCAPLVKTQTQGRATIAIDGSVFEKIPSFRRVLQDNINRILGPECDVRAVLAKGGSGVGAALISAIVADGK

T5 sequence (P41145 whole entry): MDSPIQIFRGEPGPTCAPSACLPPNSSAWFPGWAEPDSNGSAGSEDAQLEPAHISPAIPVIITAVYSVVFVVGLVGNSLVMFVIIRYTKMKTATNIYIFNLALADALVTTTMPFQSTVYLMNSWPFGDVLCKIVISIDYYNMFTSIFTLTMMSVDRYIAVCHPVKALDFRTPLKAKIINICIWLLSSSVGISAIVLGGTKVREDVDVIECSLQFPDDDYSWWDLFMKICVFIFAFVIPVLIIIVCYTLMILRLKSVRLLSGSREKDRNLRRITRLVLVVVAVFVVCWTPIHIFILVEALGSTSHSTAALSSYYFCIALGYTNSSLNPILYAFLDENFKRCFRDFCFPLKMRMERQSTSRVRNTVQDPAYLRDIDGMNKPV
Chain of DNA damage-inducible transcript 3 protein (P35639 whole entry): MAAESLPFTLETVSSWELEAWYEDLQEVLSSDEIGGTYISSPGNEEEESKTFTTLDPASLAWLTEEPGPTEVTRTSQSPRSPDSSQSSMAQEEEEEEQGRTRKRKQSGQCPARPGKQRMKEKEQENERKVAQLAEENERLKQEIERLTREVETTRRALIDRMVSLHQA
Chain of Integrin alpha-4 (P13612 whole entry): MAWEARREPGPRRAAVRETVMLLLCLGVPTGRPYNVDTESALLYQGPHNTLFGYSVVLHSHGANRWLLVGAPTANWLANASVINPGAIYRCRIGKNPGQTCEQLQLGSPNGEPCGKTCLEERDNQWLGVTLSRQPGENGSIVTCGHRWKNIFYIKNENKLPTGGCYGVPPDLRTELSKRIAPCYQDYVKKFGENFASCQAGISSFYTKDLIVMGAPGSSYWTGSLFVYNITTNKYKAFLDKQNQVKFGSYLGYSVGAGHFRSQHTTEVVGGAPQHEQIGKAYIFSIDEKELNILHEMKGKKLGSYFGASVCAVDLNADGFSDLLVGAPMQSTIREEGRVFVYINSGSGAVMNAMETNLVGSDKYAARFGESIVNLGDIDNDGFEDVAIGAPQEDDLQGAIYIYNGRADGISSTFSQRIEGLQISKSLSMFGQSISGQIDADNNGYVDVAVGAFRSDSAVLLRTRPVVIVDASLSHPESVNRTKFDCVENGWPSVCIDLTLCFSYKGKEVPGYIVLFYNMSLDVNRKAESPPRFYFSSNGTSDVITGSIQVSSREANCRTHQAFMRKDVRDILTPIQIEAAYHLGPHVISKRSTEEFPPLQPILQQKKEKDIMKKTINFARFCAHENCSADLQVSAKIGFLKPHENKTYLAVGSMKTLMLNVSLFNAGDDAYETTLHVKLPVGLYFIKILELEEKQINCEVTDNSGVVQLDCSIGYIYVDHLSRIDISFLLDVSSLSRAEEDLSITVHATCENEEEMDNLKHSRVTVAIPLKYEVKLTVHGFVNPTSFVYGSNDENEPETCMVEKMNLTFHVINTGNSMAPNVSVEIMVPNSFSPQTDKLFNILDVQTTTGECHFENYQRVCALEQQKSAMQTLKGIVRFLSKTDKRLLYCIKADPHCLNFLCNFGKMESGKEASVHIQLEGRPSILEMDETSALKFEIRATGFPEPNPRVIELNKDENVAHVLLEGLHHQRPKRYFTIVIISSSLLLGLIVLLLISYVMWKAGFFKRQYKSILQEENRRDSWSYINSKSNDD
Chain of Sphingosine 1-phosphate receptor 4 (O95977 whole entry): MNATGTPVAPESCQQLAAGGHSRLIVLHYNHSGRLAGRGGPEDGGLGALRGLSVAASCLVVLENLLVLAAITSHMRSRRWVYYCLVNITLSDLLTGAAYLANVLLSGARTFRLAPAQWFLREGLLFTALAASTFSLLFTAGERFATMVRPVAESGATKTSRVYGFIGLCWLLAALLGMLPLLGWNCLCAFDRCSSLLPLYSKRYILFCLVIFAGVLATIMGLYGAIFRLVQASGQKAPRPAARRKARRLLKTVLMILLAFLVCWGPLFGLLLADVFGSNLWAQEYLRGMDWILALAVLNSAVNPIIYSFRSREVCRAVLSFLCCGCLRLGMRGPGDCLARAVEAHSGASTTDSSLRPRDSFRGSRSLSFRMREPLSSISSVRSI
Chain of Mu-type opioid receptor (P35372 whole entry): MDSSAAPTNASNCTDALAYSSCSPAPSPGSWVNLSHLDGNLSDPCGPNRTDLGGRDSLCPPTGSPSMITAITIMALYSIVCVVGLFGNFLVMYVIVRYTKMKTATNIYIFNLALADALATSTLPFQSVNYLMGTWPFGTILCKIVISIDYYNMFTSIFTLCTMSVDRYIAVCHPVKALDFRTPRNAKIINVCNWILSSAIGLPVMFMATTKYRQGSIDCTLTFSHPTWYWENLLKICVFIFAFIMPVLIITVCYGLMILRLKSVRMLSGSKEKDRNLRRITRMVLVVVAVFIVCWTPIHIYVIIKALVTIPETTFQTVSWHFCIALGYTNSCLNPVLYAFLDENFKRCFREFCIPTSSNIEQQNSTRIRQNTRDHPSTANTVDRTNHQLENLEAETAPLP
Chain of Delta-type opioid receptor (P41143 whole entry): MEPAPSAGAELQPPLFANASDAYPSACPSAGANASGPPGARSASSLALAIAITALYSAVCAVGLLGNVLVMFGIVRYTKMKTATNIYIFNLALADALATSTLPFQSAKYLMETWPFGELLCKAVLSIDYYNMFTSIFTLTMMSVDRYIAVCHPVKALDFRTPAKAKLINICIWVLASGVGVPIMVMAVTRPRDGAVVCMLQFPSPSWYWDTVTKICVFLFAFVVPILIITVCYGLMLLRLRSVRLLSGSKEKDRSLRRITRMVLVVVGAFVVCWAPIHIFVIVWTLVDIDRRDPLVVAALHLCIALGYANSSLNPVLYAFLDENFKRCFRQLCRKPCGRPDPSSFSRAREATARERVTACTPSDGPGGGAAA
Chain of Dual specificity protein phosphatase 3 (P51452 whole entry): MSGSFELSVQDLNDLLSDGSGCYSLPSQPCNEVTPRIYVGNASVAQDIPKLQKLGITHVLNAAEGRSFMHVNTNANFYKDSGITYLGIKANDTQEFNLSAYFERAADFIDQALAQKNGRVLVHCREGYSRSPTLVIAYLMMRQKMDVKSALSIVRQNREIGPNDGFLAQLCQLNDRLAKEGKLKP
Chain of CAAX prenyl protease 2 (Q03530 whole entry): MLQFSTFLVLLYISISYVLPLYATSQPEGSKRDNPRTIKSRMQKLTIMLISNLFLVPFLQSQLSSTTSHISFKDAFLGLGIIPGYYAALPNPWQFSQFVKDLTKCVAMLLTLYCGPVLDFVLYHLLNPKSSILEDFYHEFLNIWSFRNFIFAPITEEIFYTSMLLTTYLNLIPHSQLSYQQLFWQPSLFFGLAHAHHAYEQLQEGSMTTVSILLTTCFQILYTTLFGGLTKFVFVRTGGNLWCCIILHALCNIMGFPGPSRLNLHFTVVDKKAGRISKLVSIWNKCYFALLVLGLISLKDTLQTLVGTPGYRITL

SMILES: Cc1ccc2c(c1)sc[n+]2Cc1ccccc1
- EC50 [1]: 11.9 µM (active)
- EC50 [2]: 46.1 µM (active)
- EC50 [3]: 68.9 µM (inconclusive)
- EC50 [4]: 1.87 µM (active)
- EC50 [5]: > 60 µM (not active)
- AC50 [6]: 18.6 µM (active)

SMILES: CS(=O)(=O)c1nc(-c2ccco2)cc(C(F)(F)F)n1
- IC50 [7]: 0.644 µM (active)
- EC50 [8]: 6.49 µM (active)
- EC50 [4]: 1.61 µM (active)
- EC50 [9]: 5.96 µM (active)
- EC50 [5]: 3.73 µM (active)
- Absolute IC50 (CHOP) [10]: 10 µM
- AC50 [11]: > 380 µM (inactive)
- EC50 [12]: > 380 µM (inactive)

SMILES: COc1ccc([C@H]2CC(=O)C=C(c3ccc(OC)nc3)C2)cc1
- EC50 [13]: 3.19 µM (active)

SMILES: CCc1ccc(C(=O)COC(=O)c2cccs2)cc1
- IC50 [14]: > 50 µM (inactive)

SMILES: O=C1NC(=O)C2(N1)c1ccccc1-c1ccccc12
- EC50 [15]: 0.334 µM (active)

SMILES: Cc1ccc(CNC(=O)C(C)OC(=O)c2c(C)nn(Cc3ccccc3)c2Cl)cc1 (stereo not given)
- EC50 [16]: > 50 µM (inactive)

SMILES: Cc1ccc(C(=O)NC2CCSc3ccccc32)cc1S(N)(=O)=O (stereo not given)
- IC50 [17]: > 100 µM (inactive)
- IC50 [18]: > 100 µM (inactive)

SMILES: CCN(CCNC(=O)c1ccc(CNS(=O)(=O)c2ccc(Br)cc2)cc1)Cc1ccccc1
- IC50 [19]: 8.46 µM (active)
- IC50 [20]: > 32 µM (inactive)
- IC50 [21]: 19.4 µM (inactive)
- IC50 [22]: 4.82 µM (active)

SMILES: O=C(CCn1sc2ccccc2c1=O)Nc1ccccc1
- IC50 [23]: 19.8 µM (active)
